# Measured values as given in patent US20260094669A1, “EPITOPE PREDICTION VIA A LEARNED GENOTYPE NETWORK ACROSS CLASS II MHC ALLELES” (Seattle Project Corp., priority 2023, published 2026).
# T1: HLA-DP of Raji cells (DPA1*02:02/DPB1*01:01) (human, UniProt P20036 29-222; P04440 30-225, limits assumed)
# T1 construct: whole, on cells; also called Raji_25mer DP
# T1 MHC II alpha: not shown
# T1 MHC II beta: not shown
# B1: GACGVGKSALTIQLI (peptide)
# peptide: GACGVGKSALTIQLI
# notes: KRAS G12C peptide eluted from HLA class II of cells engineered to express a KRAS G12C construct; also called Peptide_099class2; KRAS MHC II Peptide 099
# B2: MTEYKLVVVGAC (peptide)
# peptide: MTEYKLVVVGAC
# notes: KRAS G12C peptide eluted from HLA class II of cells engineered to express a KRAS G12C construct; also called Peptide_098class2; KRAS MHC II Peptide 098
# Molecular target: T1, HLA-DP of Raji cells …
# Experiment: targeted MS of peptides eluted from HLA-DP IP (B7/21.1), Raji cells expressing KRAS G12C 25mer
# Settings: not given
row,Molecule,binding result
1,B1,binds

# System: CD4 or CD8 T cell depleted PBMCs
# Experiment: CD4/CD8 depletions followed by IFNγ ELISpot or FluoroSpot
# Format: cell-based, human
# Settings: PBMCs from single donors; peptide #29: donor SE-0386
# Procedure: CD4 or CD8 T cells were depleted from total PBMCs using Miltenyi MACS microbeads and columns. PBMCs were labeled with anti-CD4 or anti-CD8 microbeads before being run through a MACS Column placed in a MACS Separator magnet. Labeled cells remained in the column and the negative fractions were collected as either the CD8 or CD4 enriched population. Cells were then plated at 200,000 cells/well and stimulated overnight in an IFNγ ELISpot assay or FluoroSpot assay to detect IFNγ or IL-2.
row,Molecule,responses in CD4 enriched (CD8 depleted) samples
1,EYKLVVVGACG [Peptide_29],demonstrated responses

# Same assay, conditions: class II long OLP pools deconvolution
row,Molecule,T cell response in healthy donor SE-0386
1,EYKLVVVGACG [Peptide_29],CD4^+ T cell-dependent response

# System: rTCR Jurkat cells (CD69, CD25)
# Experiment: recombinant TCR (rTCR) Jurkat functional assay
# Format: cell-based, human
# Settings: co-culture with class II matched KAS116 cells
row,Molecule,response of TCR969/TCR995 rTCR Jurkat cells to the peptide
1,EYKLVVVGACG [Peptide_29],confirmed responses

# Molecular target: T2, HLA-DP of DBB cells (DPA1*01:03/DPB1*04:01) (human, UniProt P20036 29-222; P04440 30-225, limits assumed)
# T2 construct: whole, on cells; also called DBB_25mer DP
# Experiment: targeted MS of peptides eluted from HLA-DP IP (B7/21.1), DBB cells expressing KRAS G12C 25mer
# Settings: not given
# T2 sequence (P20036 29-222 limits assumed, chain 1 of 4, other chains not shown): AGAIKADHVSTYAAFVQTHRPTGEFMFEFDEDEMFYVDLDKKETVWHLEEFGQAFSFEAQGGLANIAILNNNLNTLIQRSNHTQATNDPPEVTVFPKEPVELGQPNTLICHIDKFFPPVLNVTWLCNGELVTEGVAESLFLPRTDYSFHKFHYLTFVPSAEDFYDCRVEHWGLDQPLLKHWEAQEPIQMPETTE
# T2 sequence (P04440 30-225 limits assumed, chain 2 of 4, other chains not shown): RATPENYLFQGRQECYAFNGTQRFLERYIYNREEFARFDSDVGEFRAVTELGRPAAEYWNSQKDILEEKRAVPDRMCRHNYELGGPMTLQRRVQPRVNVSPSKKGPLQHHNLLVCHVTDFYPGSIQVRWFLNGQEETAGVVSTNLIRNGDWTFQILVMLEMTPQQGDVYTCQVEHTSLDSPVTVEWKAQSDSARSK
row,Molecule,binding result
1,B2,binds

# System: IFNγ-producing T cells (PBMCs)
# Experiment: ex vivo IFNγ ELISpot assay
# Format: cell-based, human
# Settings: PBMCs from single donor SE-0386
row,Molecule,"response to single peptides from CD8 pools, ex vivo ELISpot"
1,EYKLVVVGACG [Peptide_29],demonstrated a response

# Same assay, conditions: patient G05-002-122 PBMCs following vaccination
row,Molecule,"responses to single 8-11mer peptides, ex vivo IFNγ ELISpot"
1,EYKLVVVGACG [Peptide_29],confirmed responses

# System: CD4+ T cell
# Experiment: not given
# Settings: CD4+ immunogenicity label (1/0) used in logistic regression; ELISpot response data from Ott et al.; cited from earlier work
row,Molecule,y
1,GRMSPSQFARVPGYVGSPLAAMNPK,1
2,YLSHTLGAASSFMRPTVPPPQF,0
3,SLTEESGGAVAFFPGNLSTSSSA,0
4,SHQIHSYQLYTHPLLHPWDHRD,0
5,SSPLGRANGRRFANPRDSFSAMGFQR,0
6,FCGTPDYIAPKIIAYQPYGKSVD,0
7,LENNANHDETSFLLPRKESNIVD,0
8,GSGSQMPAWRTRGAISASSTQKTPTTRL,0
9,DEQGREAELARSGPSAAGPVRLKPGLVPGL,0
10,VTSPKASPVTFPAAAFPTASPANKD,1
11,KGEKNGMTFSSTKDYVNNV,0
12,DGGRQHSGPRRHSGAGPKPSSSEWAVCWAP,0
13,FPVVQSTEDVFPQGLPNEYAFVT,0
14,VTLNDMKARQKALVRERERQLA,0
15,SHNELADSGIPENSFNVSSLVE,0
16,GDQYKATDFVADWAGTFKMVFTPKDGSG,1
17,RGRLPAGAVRTLLSQVNKVWDQSS,0
18,LHTHYDYVSALHPVSTPSKEYTSA,0
19,NQVLASRYGIRGFSTIKIFQKGESPV,0
20,SGSPPLRVSVGDFSQEFSPIQEAQQD,1
21,SPQSGGAATLAAQARLQPVHLDVWGEHERG,0
22,TAQFAPSPGQPPALSPSYPGHRLPLQQG,0
23,ALLQNVELRRNVLVSPTPLAN,0
24,SLPSNVLSSLVLVPLHTTPK,0
25,DVTGPHLYSIYLHGSTDKLPYVTMGS,0

row,Molecule,y
1,PETGEIQVKTFLDREQRESYELKV,0
2,AASAAAFPSQRTSWEFLQSLVSIKQEK,1
3,FAKGFRESDLNSWPVAPRPLLSV,0
4,LCPREEFLRLCKKIMMRSIQ,0
5,ERFWRNILLLSLHKGSLYPRIPGLGKE,0
6,GHEHQPDMQKSLLRAAFFGKCFLDR,1
7,TFPKKIQMLARDFLDEY,0
8,STQHADLTIIDNIKEMNFLRRYK,0
9,TKRQVILLHTELERFLEYLPLRF,0
10,SHHTHSYQRYSHPLFLPGHRLDPPI,0
11,TRNSFALVPSLQRLMLRKVALKNVDSSPS,0
12,STEVEPKESPHLARHRHLMKTLVKSLST,0
13,KLRTIPLSDNTIFRRICTIAKHLE,1
14,SRLQTRKNKKLALSSTPSNIAPSD,1
15,DSYHLYAYHEELSATVPSQWKKIG,0
16,TKLKSKAPHWTNCILHEYKNLSTS,0
17,SLRNNMFEISDRFIGIYKTYNITK,0
18,DKGHQFHVHPLLHSGDDLDP,0
19,SSHYKFSKPALQSQSISLVQQS,1
20,PGGDSGELITDAHELGVAHPPGY,0
21,SHKLESIKEITNFKDAKQLL,0
22,SPIKLVQKVASKIPFPDRITEESV,0
23,AAVRPEQRPAARGSRV,0
24,TTPSGSAEYMASEVVEVFTDQAT,0
25,ASATEPANDSLFSPGAANLFSTYLAR,0

row,Molecule,y
1,DGAWPVLLDKFVEWYKDKQMS,0
2,GSVLQFMPFTTVSELMKVSAMSSPKV,0
3,RLVLGKFGDLTNNFSSPHAR,0
4,LGETMGQVTEKLQPTYMEET,0
5,KHLPGVNFPGNQWNPVEGILPS,0
6,WTPAAPTAMAEVGPGHTPAHPSQGAVPP,1
7,HASHLQEHQRIYTGEKPFKCDT,0
8,NNSKKKWFLFQDSKKIQVEQPQ,0
9,RRGGALFASRPRFTPL,0
10,EVVGGYTWPSGNIYQGYWAQGKR,0
11,MAGPKGFQYRALYPFRRER,0
12,KMQRRNDDKSILMHGLVSLRESSRG,0
13,PENDDLFMMPRIVDVTSLATEGG,0
14,RGQIKLADFRLARLYSSEESR,0
15,NLKAPRLLFAPEYGPKLKLRALEDRHS,0
16,DRSVLAKKLKFVTLVFRHGDRSPID,0
17,STLPVISDSTTKRRWSALVIGL,0
18,TTVTHERKQAKVVNPPIQEVGKGARK,0
19,LNTGLFRIKFKEPLENLI,0
20,LSPREEFLRLCKKIMMRSIQ,1
21,SDAFSGLTALPQSILLFGP,0
22,RPAGRTQLLWTPAAPTAMAEVGPGHTP,1
23,EIHGKCENMTITSRGTTVTPTKETVSLG,0
24,SHTQTTLFHTFYELLIQKNKHK,0
25,PASAKSRREFDKIELAYRR,0

row,Molecule,y
1,SHLASLKNNVSPVLRSHSFSDPSPKFA,1
2,PAHPSQGAVPPSRAAAEPHLKPSPSELQTA,1
3,SPGPRTAPRPGSQKQAGKDWQ,0
4,ARLQSKEYPVIFKSIMRQRLISPQL,0
5,TGKPEMDFVRLAQLFARARPMGLF,0
6,VKQLERGEASVVDFKKNLEYAAT,0
7,TIKNSDKNVVLEHFG,0
8,DRASFLLTDYALSPDGSIRKATG,1
9,GLTRISIQRAQPLPPCLPSFRPPTALQGLS,0
10,TETVNHHYLLFQNTDLGSFHDLLR,1
11,DGVSEEFWLVDLLPSTHYT,1
12,ELQYRGRELRFNLIANQHLLAPGFVSETR,1
13,MSQDIKKADEQIESMTYSTERKT,0
14,RYNSTAATNEVSEVTVFSKSPVT,0
15,GPLQLPVTRKNMPLPGVVKLPPLPGS,0
16,HLLQKQTSIQSPSLYGNSSPPLNK,0
17,PAPPPAVPKEHPAPPAPPPASAPTP,0
18,VNGISSQPQVPFYPNLQKSQYYSTV,0
19,WCTEMKRVFGFPVHYTDVSNMS,0
20,EDSDKLFESKAELADHQKF,0
21,GHQKLPGKIHLFEAEFTQVAKKEPDG,1
22,EDLDANLRKLNFRLFVIRGQPAD,0
